The source of these data is PubChem BioAssay (NCI).

Test systems include 786-0 renal; A549 NSCLC; EKVX NSCLC; NCI-H23 lung; OVCAR-8 ovarian; SNB-75 CNS; U251 CNS; UACC-62 melanoma; SF-539 CNS.
Common to all, as to experiment: NCI tumour cell line growth inhibition, 48 h

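Five compound concentrations were applied to cells in 96-well plates for 48 hours; endpoints were derived by simple linear interpolation of the resulting dose-response curve. At the GI50, growth is halved. The concentration for full growth arrest is given as TGI.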 Where only a bound is given, the exact number is not on record here.

For `O=[N+]([O-])c1ccc(N=Nc2c(O)[nH]c3ccc(Br)cc23)c([N+](=O)[O-])c1`, the TGI in the experiment with 786-0 renal was found to be 13.2 µM; in the experiment with A549 NSCLC, 20.4 µM; in the experiment on EKVX NSCLC, 33.7 µM; with NCI-H23 lung it was 8.28 µM; in the experiment with OVCAR-8 ovarian, 18.9 µM; in the experiment with SNB-75 CNS, 11.5 µM. Further, the figures for the TGI in the experiment with U251 CNS and with UACC-62 melanoma were 16.3 µM and 16.2 µM, respectively.

Turning to `COc1ccc(C(=O)Nc2ccccc2C#N)cc1`, the TGI in the experiment on 786-0 renal, in the experiment with A549 NSCLC, in the experiment with EKVX NSCLC, with NCI-H23 lung, with OVCAR-8 ovarian and in the experiment with SF-539 CNS was over 100 µM throughout. Also, the TGI with SNB-75 CNS, with U251 CNS and with UACC-62 melanoma was over 100 µM each time.

Regarding `CCOC(=O)c1c(-c2ccccc2)[nH]c2ccccc2c1=O`, the TGI in the experiment with 786-0 renal, in the experiment with A549 NSCLC, with EKVX NSCLC, with NCI-H23 lung, in the experiment with OVCAR-8 ovarian and in the experiment on SNB-75 CNS was over 100 µM in each case. This molecule also had a TGI in the experiment on U251 CNS of over 100 µM.

As for `CNS(=O)(=O)NN(C)S(=O)(=O)c1ccc(C)cc1`, the TGI in the experiment on 786-0 renal, in the experiment with A549 NSCLC, with EKVX NSCLC, with NCI-H23 lung, with OVCAR-8 ovarian and with SF-539 CNS was over 100 µM in each case. The TGI in the experiment on UACC-62 melanoma was over 100 µM.

Consider `c1ccc2c(c1)SCCCSCCCS2`, for which the TGI in the experiment on 786-0 renal, with A549 NSCLC, with EKVX NSCLC, in the experiment on NCI-H23 lung, in the experiment on OVCAR-8 ovarian and in the experiment on SF-539 CNS was over 100 µM each time. Further, the TGI with SNB-75 CNS, with U251 CNS and in the experiment on UACC-62 melanoma was over 100 µM in each case.

In the case of `Clc1ccc(C2=NN(c3ccccc3)C3c4cc(Br)ccc4OCC23)cc1` (configuration not stated), the TGI in the experiment on 786-0 renal, in the experiment on A549 NSCLC, with EKVX NSCLC, in the experiment with NCI-H23 lung, in the experiment on OVCAR-8 ovarian and with SF-539 CNS was over 100 µM in each case. In addition, the TGI in the experiment on SNB-75 CNS and with U251 CNS was over 100 µM in each case.

Take `CC[C@]12C=CCN3CC[C@]4(C(=C(C(=O)OC)C1)Nc1ccccc14)[C@@H]32`: the GI50 with 786-0 renal was 3.66 µM; with A549 NSCLC it was 12.4 µM; with EKVX NSCLC, 5.99 µM; in the experiment on NCI-H23 lung it was 4.37 µM; in the experiment on OVCAR-8 ovarian, 3.75 µM; in the experiment with SF-539 CNS, 3.09 µM. Further, the GI50 with SNB-75 CNS is 2.15 µM; in the experiment on U251 CNS it was 3.64 µM; with UACC-62 melanoma, 2.89 µM. The TGI was 15.6 µM in the experiment with 786-0 renal; 31.8 µM in the experiment with A549 NSCLC; 22.4 µM in the experiment with EKVX NSCLC; 17.7 µM in the experiment with NCI-H23 lung; over 100 µM in the experiment on OVCAR-8 ovarian; 10.1 µM in the experiment with SF-539 CNS. Besides, the TGI with SNB-75 CNS is 7.93 µM; in the experiment on U251 CNS, 16.4 µM; in the experiment on UACC-62 melanoma it was 12 µM.

Consider `COC(=O)C1(c2ccc(OC)cc2)NC(c2ccccc2)C2C(=O)N(c3ccc(OC)cc3)C(=O)C21` (configuration not stated), for which the TGI with 786-0 renal, in the experiment with A549 NSCLC, with EKVX NSCLC, in the experiment on NCI-H23 lung, in the experiment with OVCAR-8 ovarian and in the experiment on SF-539 CNS was over 100 µM in each case. In addition, the TGI with SNB-75 CNS, with U251 CNS and with UACC-62 melanoma was over 100 µM throughout.

Consider `Cc1ccc(C)c(NC(=O)CCC(=O)CC(=O)C(C)(C)C)c1`, for which the TGI in the experiment with 786-0 renal, in the experiment with A549 NSCLC, in the experiment with EKVX NSCLC, with NCI-H23 lung, with OVCAR-8 ovarian and in the experiment on SF-539 CNS was over 100 µM throughout. In addition, the TGI with SNB-75 CNS, with U251 CNS and in the experiment with UACC-62 melanoma was over 100 µM in each case.

Consider `CCCCCNC(=O)C1C(=O)N(CCCCC)C(=O)/C1=N\N` (configuration not stated), for which the TGI with 786-0 renal, with A549 NSCLC, in the experiment on EKVX NSCLC, in the experiment with NCI-H23 lung, in the experiment on OVCAR-8 ovarian and in the experiment on SF-539 CNS was over 100 µM throughout. The TGI with U251 CNS and in the experiment with UACC-62 melanoma was over 100 µM in each case.

On to `Nc1ccc(C(=O)O)c2[nH]c3ccccc3c(=O)c12`, for which the TGI with 786-0 renal, in the experiment with A549 NSCLC, with OVCAR-8 ovarian, with SF-539 CNS, with SNB-75 CNS and in the experiment on U251 CNS was over 100 µM in each case. Further, the TGI with UACC-62 melanoma was over 100 µM.

As for `O=C1/C(=C/c2ccccc2Cl)COc2ccccc21`, the TGI in the experiment with 786-0 renal stood at 28.5 µM; in the experiment with A549 NSCLC, 55.8 µM; in the experiment with EKVX NSCLC it was 29.7 µM; with NCI-H23 lung, 36 µM; in the experiment on OVCAR-8 ovarian it was 33.4 µM; in the experiment on SF-539 CNS, 31 µM. Further, the values for the TGI in the experiment with SNB-75 CNS and in the experiment on U251 CNS were 32.1 µM and 26.9 µM, respectively.
